In one test the target is KRAS G12C (Homo sapiens, UniProt P01116, G12C). Briefly: KRAS G12C cellular target engagement assay (SW1573 cells). The test is classed as cell-based. The arrangement: host or cells: SW1573. Particulars: 17 hours, read-out: TE50 (the source's name). How it is done:
SW1573 cells (ATCC CRL-2170) were cultured in RPMI 1640 (Gibco A1049101), supplemented with 10% Heat-inactivated FBS (Gibco Cat. #A38400-01) and 1% Penicillin/Streptomycin (Gibco Cat. #15140-122) in an incubator set at 37° C. and 5% CO2. Cells were seeded at 100,000 cells/ml in 1 ml of complete media in a 24-well, tissue culture-treated plate (Falcon 353226) and incubated overnight. Cells were treated with increasing concentrations of compound and let incubate at 37C and 5% CO2 for 17 hours, after which media was aspirated and cells were lysed in 75 uL RIPA Lysis and Extraction Buffer (Thermo 89901) supplemented with 5 mM MgCl2, Protease and Phosphatase inhibitor cocktail (Thermo 1861281), and Universal Nuclease (Thermo 88700). Plates with RIPA were shaken at 4° C. at 600 rpm for 15 min. After shaking samples, they were collected and spun down at 21,000 g for 15 min at 4° C. Following centrifugation, ˜10 ug of lysate was added to Laemmli Sample Buffer (Bio-Rad 1610747) plus 10% beta-mercaptoethanol, boiled for 15 minutes at 65° C. and loaded onto 12% Mini-PROTEAN TGX™ Precast Protein Gels (Bio-Rad). Protein was transferred to a nitrocellulose membrane (Thermo LC2000) using the iBlot 2 Dry Blotting System (Thermo). After transfer, membranes were washed in 1× TBST (Bioland Scientific LLC TBST0103) 3× for 5 min. Following the wash, blocking buffer (Rockland MB-070) was added for 1 hour at room temperature. Primary antibodies against KRAS (LifeSpan Bio LS-C175665) and actin (Cell Signaling Technology 8457) were added overnight at 4° C. Membranes were then washed again 3× for 5 min in 1× TBST. Secondary antibodies (LI-COR 926-68072 and 926-68073) were added and shaken for 1 hr at room temperature. Membranes were then washed 3× for 5 min in 1×TBST and developed. Membranes were placed on an Odyssey imager (LI-COR).

The next test has as its system GSPT1. Briefly: Payload release assay (DC50 readout), GSPT1 degradation in the presence of recombinant target protein. It is filed as cell-based. Particulars: I-series compounds (GSPT1 readout inferred).
The mark [1] stands for this setting: 0 μM recombinant KRAS G12C, read-out: DC50 at 0 μM KRAS G12C.
Where [2] appears, read: 5 μM recombinant KRAS G12C, read-out: DC50 at 5 μM KRAS G12C.

Read-outs that look alike come from different tables or passages of the source.

A word on the DC50: it is the midpoint of the concentration-degradation curve.

Chain of KRAS G12C (P01116 1-188 isoform P01116-2 G12C): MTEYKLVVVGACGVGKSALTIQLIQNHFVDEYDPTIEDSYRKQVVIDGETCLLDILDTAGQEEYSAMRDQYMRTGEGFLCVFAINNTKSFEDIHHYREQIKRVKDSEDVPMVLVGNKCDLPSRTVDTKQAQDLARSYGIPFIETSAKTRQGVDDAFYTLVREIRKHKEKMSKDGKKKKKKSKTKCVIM

`C=C(COc1ccccc1NC(=O)NCc1ccc2c(c1)CN(C1CCC(=O)NC1=O)C2=O)C(=O)N1CCN(c2nc(OC[C@H]3CCCN3C)nc3c2CCN(c2cccc4cccc(Cl)c24)C3)C[C@H]1CC#N` (stereo partly drawn) [Compound I-80]: the EC50 at KRAS G12C is below 250 nM. For the same compound, the values for the DC50 with GSPT1 (setting [1]) and in the test on GSPT1 (setting [2]) were 250 to 5000 nM and below 250 nM, respectively.
As for `C=C(COc1cc(Cl)cc(NC(=O)NCc2ccc3c(c2)CN(C2CCC(=O)NC2=O)C3=O)c1F)C(=O)N1CCN(c2nc(OC[C@@H]3CCCN3C)nc3c2CCN(c2cccc4cccc(Cl)c24)C3)C[C@@H]1CC#N` (stereo partly drawn) [Compound I-84], the EC50 on KRAS G12C is above 10000 nM. The half-maximal degradation concentration (DC50) in the test on GSPT1 (setting [1]) and in the test with GSPT1 (setting [2]) was below 250 nM each time.
In the case of `C=C(COc1cc(NC(=O)NCc2ccc3c(c2F)CN(C2CCC(=O)NC2=O)C3=O)cc(C(F)(F)F)c1)C(=O)N1CCN(c2nc(OC[C@@H]3CCCN3C)nc3c2CCN(c2cccc4cccc(Cl)c24)C3)C[C@@H]1CC#N` (stereo partly drawn) [Compound I-85], the EC50 on KRAS G12C was below 250 nM. For the same compound, the results for the DC50 in the test with GSPT1 (setting [1]) and in the test on GSPT1 (setting [2]) were 250 to 5000 nM and below 250 nM, respectively.
On to `C=C(COc1c(Cl)cccc1NC(=O)NCc1ccc2c(c1)CN(C1CCC(=O)NC1=O)C2=O)C(=O)N1CCN(c2nc(OC[C@@H]3CCCN3C)nc3c2CCN(c2cccc4cccc(Cl)c24)C3)C[C@@H]1CC#N` (stereo partly drawn) [Compound I-86], for which, at KRAS G12C, the EC50 lay within 250 to 5000 nM. For the same compound, the DC50 in the test with GSPT1 (setting [1]) and in the test with GSPT1 (setting [2]) was below 250 nM each time.
Regarding `C=C(COc1cc(C(F)(F)F)c(Cl)cc1NC(=O)NCc1ccc2c(c1)CN(C1CCC(=O)NC1=O)C2=O)C(=O)N1CCN(c2nc(OC[C@@H]3CCCN3C)nc3c2CCN(c2cccc4cccc(Cl)c24)C3)C[C@@H]1CC#N` (stereo partly drawn) [Compound I-88], the EC50 on KRAS G12C was below 250 nM. For the same compound, the 50% degradation concentration (DC50) in the test on GSPT1 (setting [1]) and in the test with GSPT1 (setting [2]) was below 250 nM each time.
As to `C=C(COc1cc(NC(=O)NCc2ccc3c(c2)CN(C2CCC(=O)NC2=O)C3=O)ccc1OC)C(=O)N1CCN(c2nc(OC[C@@H]3CCCN3C)nc3c2CCN(c2cccc4cccc(Cl)c24)C3)C[C@@H]1CC#N` (stereo partly drawn) [Compound I-89], the EC50 on KRAS G12C fell in the range of 250 to 5000 nM. For the same compound, the results for the DC50 in the test with GSPT1 (setting [1]) and in the test on GSPT1 (setting [2]) were 250 to 5000 nM and above 10000 nM, respectively.
As to `C=C(COc1c(CNC(=O)Nc2ccc(C)c(Cl)c2)ccc2c1CN(C1CCC(=O)NC1=O)C2=O)C(=O)N1CCN(c2nc(OC[C@@H]3CCCN3C)nc3c2CCN(c2cccc4cccc(Cl)c24)C3)C[C@@H]1CC#N` (stereo partly drawn) [Compound I-90], on KRAS G12C, the EC50 was below 250 nM. For the same compound, the DC50 with GSPT1 (setting [1]) and with GSPT1 (setting [2]) was below 250 nM each time.
Take `C=C(COc1cc(Cl)cc(NC(=O)NCc2ccc3c(c2F)CN(C2CCC(=O)NC2=O)C3=O)c1)C(=O)N1CCN(c2nc(OC[C@@H]3CCCN3C)nc3c2CCN(c2cccc4cccc(Cl)c24)C3)C[C@@H]1CC#N` (stereo partly drawn) [Compound I-116]: the EC50 on KRAS G12C was below 250 nM. Besides, the figures for the DC50 with GSPT1 (setting [1]) and in the test with GSPT1 (setting [2]) were 250 to 5000 nM and below 250 nM, respectively.
